Data from patent publication US20190350889A1, “Compositions And Methods Of Use Of Phorbol Esters In The Treatment Of Parkinson's Disease” (priority 2016, published 2019).

Legend:
[1] = Dose ranging study: toxicity and side effects of different TPA doses administered clinically by i.v. infusion; assay type: in vivo, human
Method: TPA solution in a sterile syringe was injected into 200 ml of sterile saline and mixed well for i.v. infusion.
One mg TPA in solution was mixed well with 200 ml of sterile saline for intravenous infusion which was completed in 1 h at the rate of 16 μg/min. […] The above symptoms could be alleviated by giving the patients glucocorticoids. […] However, these side effects were short lived and reversible.
0.5 mg of TPA in solution was mixed well with 200 ml of saline for intravenous infusion which was completed in 1 h at the rate of 8 μg/min. […] Difficulty in breathing was not observed. The cardiac, hepatic, renal and pulmonary functions were all normal.
0.25 mg of TPA in solution was mixed well with 200 ml of saline for intravenous infusion which was completed in 1 h at the rate of 4 μg/min. […] The cardiac, hepatic, renal and pulmonary functions were all normal.

HIV = details: MT-4 cells; Mekkawy et al. 2000; cited from earlier work
[2] = patients with bone marrow function depressed by chemotherapy; Han et al. 1998; cited from earlier work
[3] = polar organic solvents and water; cited from earlier work
[4] = 0.25 mg/patient x 4/week, i.v. infusion
[5] = 0.5 mg/patient x 2/week, i.v. infusion
[6] = 1 mg/patient/week, i.v. infusion
[7] = 1 mg/patient/week, i.v. infusion in 1 h at 16 μg/min

Row | Compound | Hb in the urine [1, 4] | cardiac, hepatic, renal and pulmonary functions [1, 4] | difficulty in breathing [1, 4] | symptoms such as chills and fever ([1]; 0.25 mg/patient x 4/week, i.v. infusion in 1 h at 4 μg/min) | Hb in the urine [1, 5] | cardiac, hepatic, renal and pulmonary functions [1, 5] | difficulty in breathing [1, 5] | tolerability [1, 5] | Hb in the urine [1, 6] | bleeding [1, 6] | cardiac, hepatic, renal and pulmonary functions [1, 6] | difficulty in breathing [1, 6] | duration of chills [1, 7] | duration of fever [1, 7] [h] | fever: patients' temperature reached [1, 7] | onset of chills after TPA administration [1, 7] | local irritation ([1]; TPA application (reason for giving it by i.v. infusion)) | HIV-cytopathic effects (HIV) | circulating white blood cells and neutrophils [2] | solubility [3]
1 | CCCCCCCCCCCCCC(=O)O[C@@H]1[C@@H](C)[C@@]2(O)[C@@H](C=C(CO)C[C@]3(O)C(=O)C(C)=C[C@@H]23)[C@@H]2C(C)(C)[C@]12OC(C)=O (stereo in doubt) [TPA, 12-O-tetradecanoylphorbol-13-acetate] | No Hb was detected in the urine | all normal | no patient suffered difficulty in breathing | also observed, but to a much lesser extent than with the higher dosages | Occasionally, Hb was detected in patients' urine | all normal | not observed | tolerated the lower dose more easily | Hb was detected in the urine | caused a minority of patients to bleed | all found to be normal | several patients suffered for a short period of time difficulty in breathing | about 30 min | 3 to 5 | 37.5-39.5 °C | One hour after TPA administration | strong local irritation | inhibit the HIV-cytopathic effects on MT-4 cells | cause an increase in circulating white blood cells and neutrophils | 
2 | CC1=C[C@H]2[C@@]3(O)[C@H](C)[C@@H](O)[C@]4(O)[C@H]([C@@H]3C=C(CO)C[C@]2(O)C1=O)C4(C)C [Phorbol] |  |  |  |  |  |  |  |  |  |  |  |  |  |  |  |  |  |  |  | well soluble in most polar organic solvents and in water
